Results on nine compounds are retold here after US6344458B1, “Piperazine ethylamide derivatives” (American Home Products Corporation, priority 1998, dated 2002).

Structures can show the parent of a compound that is named as a salt.

Data set [1] addresses T1, human 5HT1A receptor (Homo sapiens, UniProt P08908).
T1 construct: expressed in transfected cells; host or cells: CHO cells (stably transfected)
T1 sequence (P08908 1-422): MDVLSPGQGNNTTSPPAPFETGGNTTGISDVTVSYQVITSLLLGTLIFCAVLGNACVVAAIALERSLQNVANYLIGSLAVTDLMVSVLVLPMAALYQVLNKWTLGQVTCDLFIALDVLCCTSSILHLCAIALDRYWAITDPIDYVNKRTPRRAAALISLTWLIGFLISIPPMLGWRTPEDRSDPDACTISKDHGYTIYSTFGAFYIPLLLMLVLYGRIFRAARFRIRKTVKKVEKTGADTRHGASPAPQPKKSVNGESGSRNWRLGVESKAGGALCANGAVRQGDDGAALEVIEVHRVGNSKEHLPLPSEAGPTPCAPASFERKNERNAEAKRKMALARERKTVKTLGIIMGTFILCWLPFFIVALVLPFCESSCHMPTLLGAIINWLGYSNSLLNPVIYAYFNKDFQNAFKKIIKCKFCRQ
As to the kind of experiment: 5-HT1A Receptor Binding Assay ([3H] 8-OH-DPAT displacement). The settings on record: displacement of [3H] 8-OH-DPAT, CHO cells stably transfected with human 5HT1A receptor. The method, then: 5-HT1A Receptor Binding Assay
High affinity for the serotonin 5-HT1A receptor was established by testing a compound's ability to displace [^3H] 8-OH-DPAT binding in CHO cells stably transfected with the human 5HT1A receptor. Stably transfected CHO cells are grown in DMEM containing 10% heat inactivated FBS and non-essential amino acids. Cells are scraped off the plate, transferred to centrifuge tubes, and washed twice by centrifugation (2000 rpm for 10 min., 4° C.) in buffer (50 mM Tris pH 7.5). The resulting pellets are aliquoted and placed at −80° C. On the day of assay, the cells are thawed on ice and resuspended in buffer. The binding assay is performed in a 96 well microtiter plate in a total volume of 250 μL. Non-specific binding is determined in the presence of […] 5-HT, final ligand concentration is 1.5 nM. Following a 30 minute incubation at room temperature, the reaction is terminated by the addition of ice cold buffer and rapid filtration through a GF/B filter presoaked for 30 minutes in 0.5% PEI. Compounds are initially tested in a single point assay to determine percent inhibition at […], and Ki values are determined for the active compounds.

Data set [2] has as its target T1, human 5HT1A receptor. The data set is described as follows: 5-HT1A Receptor Intrinsic Activity Assay (reversal of forskolin-stimulated cAMP). It is filed as cell-based. The settings on record: for Emax: agonist activity, cAMP, forskolin-stimulated CHO cells with human 5-HT1A receptor. As for the experimental part:
5-HT1A Receptor Intrinsic Activity Assay
The intrinsic activity of compounds of the present invention was established by testing the claimed compounds ability to reverse the stimulation of cyclic adenosinemonophosphate (cAMP) in CHO cells stably transfected with the human 5-HT1A receptor.
Stably transfected CHO cells were grown in DMEM containing 10% heat inactivated FBS and non-essential amino acids. The cells are plated at a density of […] per well in a 24 well plate and incubated for 2 days in a CO2 incubator. On the second day, the media is replaced with 0.5 mL treatment buffer (DMEM+25 mM HEPES, 5 mM theophylline, 10 μM pargyline) and incubated for 10 minutes at 37° C. Wells are treated with forskolin (1 μM final concentration) followed immediately by the test compound (0.1 and 1 μM for initial screen) and incubated for an additional 10 minutes at 37° C. The reaction is terminated by removal of the media and addition of 0.5 mL ice cold assay buffer (supplied in the RIA kit). Plates are stored at −20° C. prior to assessment of cAMP formation by RIA. EC50 values are determined for the active test compounds. Compounds shown to have no agonist activities (Emax=0%) are further analyzed for their ability to reverse agonist induced activity. In separate experiments, 6 concentrations of antagonist are preincubated for 20 minutes prior to the addition of agonist and forskolin. Cells are harvested as described above. The cAMP kit is supplied by Amersham and the RIA is performed as per kit instructions, and calculations of IC50 performed by GraphPad Prism.

For orientation: Ki means a measure of affinity in units of concentration, obtained from inhibition or displacement. By Emax is commonly meant the maximal effect, on the per cent scale that the assay sets. A word on the IC50: it is the concentration at which inhibition is half-maximal. The compound `COc1ccccc1N1CCN(CCN(Cc2ccc3ccccc3c2)C(=O)C2CCCCC2)CC1` [Compound 6, Cyclohexanecarboxylic acid-{2-[4-(2-methoxy-phenyl)-piperazin-1-yl]-ethyl}-naphthalen-2-ylmethyl-amide] gave a Ki at human 5HT1A receptor [1] of 1.2 nM. Besides, on human 5HT1A receptor [2], the Emax came to 0%. In addition, the IC50 on human 5HT1A receptor [2] (antagonist mode, reversal of agonist induced activity, preincubated 20 minutes before agonist and forskolin) turned out to be 24 nM.
The melting point is the temperature of the solid-liquid transition. `COc1ccccc1N1CCN(CCN(Cc2ccccc2)C(=O)C2CCCCC2)CC1` (as salt: fumarate) [Compound 2, Cyclohexanecarboxylic acid benzyl-{2-[4-(2-methoxy-phenyl)-piperazin-1-yl]-ethyl}-amide]: the melting point lay within 144 to 146 °C.
`COc1ccccc1N1CCN(CCN(CCCc2ccccc2)C(=O)C2CCCCC2)CC1` (as salt: fumarate) [Compound 8, Cyclohexanecarboxylic acid-{2-[4-(2-methoxy-phenyl)-piperazin-1-yl]-ethyl}-(3-phenyl-propyl)-amide] yielded a melting point of 103 to 105 °C.
In the case of `COc1ccccc1N1CCN(CCN(Cc2cccc3ccccc23)C(=O)C2CCCCC2)CC1` [Compound 4, Cyclohexanecarboxylic acid{2-[4-(2-methoxy-phenyl)-piperazin-1-yl]-ethyl}-naphthalen-1-ylmethl-amide], the affinity at human 5HT1A receptor [1], expressed as Ki, was 26 nM. At human 5HT1A receptor [2], the Emax came to 88%.
Turning to `COc1ccccc1N1CCN(CCNC(=O)CCc2ccccc2)CC1` (as salt: fumaric acid salt) [Compound 7, N-{2-[4-(2-Methoxy-phenyl)-piperazin-1-yl]-ethyl}-3-phenyl-propionamide], the melting point lay within 107 to 108 °C.
For orientation: EC50 means the concentration giving half of the maximal effect. Turning to `COc1ccccc1N1CCN(CCN(Cc2ccccc2)C(=O)C2CCCCC2)CC1` [Compound 2, Cyclohexanecarboxylic acid benzyl-{2-[4-(2-methoxy-phenyl)-piperazin-1-yl]-ethyl}-amide], affinity at human 5HT1A receptor [1] was put at a Ki of 1.8 nM. On human 5HT1A receptor [2], the Emax was 36%. Besides, on human 5HT1A receptor [2] (agonist mode, reversal of forskolin-stimulated cAMP in CHO cells), the EC50 turned out to be 4.2 nM.
Turning to `COc1ccccc1N1CCN(CCN(CCCc2ccccc2)C(=O)C2CCCCC2)CC1` [Compound 8, Cyclohexanecarboxylic acid-{2-[4-(2-methoxy-phenyl)-piperazin-1-yl]-ethyl}-(3-phenyl-propyl)-amide], affinity at human 5HT1A receptor [1] was put at a Ki of 20 nM. The Emax on human 5HT1A receptor [2] is 77%.
In turn, `COc1ccccc1N1CCN(CCNC(=O)c2ccccc2)CC1` (as salt: fumaric acid salt) [Compound 1, N-{2-[4-(2-Methoxy-phenyl)-piperazin-1-yl]-ethyl}-benzamide] returned a melting point of 136 to 138 °C.
Still for that read-out and setting: the figure for `COc1ccccc1N1CCN(CCN(Cc2cccc3ccccc23)C(=O)C2CCCCC2)CC1` (as salt: fumarate) [Compound 4, Cyclohexanecarboxylic acid{2-[4-(2-methoxy-phenyl)-piperazin-1-yl]-ethyl}-naphthalen-1-ylmethl-amide] is 204 to 206 °C.
